Entries after “also recorded” stand apart in the source; their conditions may differ.
Experiments:
[1] = system: interferon-y regulated chemokines CXCL9-11 in the TME; assay: Orthotopic syngeneic murine hepatocellular carcinoma model (qRT-PCR, IHC); assay type: in vivo; conditions: qRT-PCR, previously demonstrated
Text: (§1) CXCL9 and CXCL10, are produced mainly by BATF3 dendritic cells that are required for Teff trafficking. The CXCL9, CXCL10, CXCL11/CXCR3 signaling axis is critical for activated T-helper type 1 (Th1), cytotoxic T-cell (CTL), and natural killer (NK) cell recruitment immune cell recruitment in vivo. A similar effect resulting from ICG-001 is likely, such as increased CD8^+T-cell infiltration into brain tumors (FIG. 3B).

[2] = as above; assay type: in vivo; conditions: IHC, minimally 10 fields counted
Text: as §1

[3] = system: PBT017 and PBT106 derived lines that express high levels of the tumor antigen HER2; assay: In vitro co-culture cytotoxicity assay, HER2-CAR T cells ± ICG-001; assay type: cell-based, human
Procedure: FIG. 2. Combinational strategy of CAR T cell-mediated tumor-antigen targeting with ICG-001 induced differentiation in glioma. […] (B) Cytotoxicity of HER2 CAR-T cells and tumor cells (1:5 ratio) was enhanced by ICG-001 at concentrations 1.25-5 μM. (C) Treatment of PBT138 patient glioma tumors with CAR T IL13Rα2+/−ICG-001.
FIG. 11. (A, B) Growth kinetics of human PBT glioma lines (PBT017, PBT030, PBT135, PBT144, and PBT147) treated with ICG-001 (0-10 μM) for 7 days and (C) mouse glioma cells (GL261, GL261-IL13, and K-luc) treated with ICG-001 (0-10 μM) for 4 days. Red boxes indicate PBT030 and PBT147 cell lines used for Nanostring and proteomics analysis. Scale bars represent S.D. of triplicate samples. (D-F) Growth kinetics of PBT017 (2,500 cells/well) treated with or without HER2-CAR T cells (500 cells/well) and with or without ICG-001 (0-5 μM). The red line is CAR T cell treatment only and the bottom three lines are with ICG-001. Experiment was done in quadruplicate and error bars indicate S.D.
FIG. 13 illustrates data resulting from the combination of ICG001 and CAR T cells toxicity in vitro using 2000 cells to start and 4 days (96-well Endpoint—cell count) according to certain embodiments.
FIG. 14 illustrates data resulting from the Combination of ICG001 and CAR T cells toxicity in vitro using 1000 cells to start and 4 days (96-well Endpoint—cell count) according to certain embodiments.
It has also been observed that ICG-001-induced differentiation of PBT017 and PBT138 (data not shown).
Next, the efficacy of a titrated dose of CAR T cells±ICG-001 to induce tumor cell killing in vitro was tested (FIG. 11D-F). The combination of HER2-engineered CAR T (HER2-CAR T) cells and IGC-001 was evaluated using in vitro co-culture assays.

KIF20A = assay: qRT-PCR of KIF20A in PBT147 and PBT030 cells; assay type: cell-based, human
Procedure: ICG-001 activity in vitro in human and mouse glioma cell lines. Initially, the effects of the specific CBP/β-catenin antagonist ICG-001 was tested in vitro as a single agent on human and mouse glioma cell lines (5 PBT human and 3 mouse glioma lines).

[4] = system: subcutaneous K-luc tumors; assay: IHC of immune cells in syngeneic subcutaneous K-luc glioma tumors; assay type: in vivo, mice (C57BL/6); conditions: 50 mg/kg/day by subcutaneous Alzet minipumps
Procedure: FIG. 22. IHC analysis of immune cells in syngeneic models of subcutaneous glioma (K-Luc). (A-D) Mice bearing subcutaneous K-luc glioma tumors were treated with ICG-001 (50 mg/kg/day) for 7, 14, or 21 days. At the end of treatment, tumor was excised and IHC stained for CD3 cells to evaluate recruitment and patterns of CD3 distribution (red). (E) Quantification of tumor coverage using ImageJ for mouse CD3, CD4, CD8, and CD31 positive cells on days 0-21. Scale bars are S.D. of duplicate sections (n=4).
Animal studies. Syngeneic mice (C57BL/6) of 8-12 weeks of age were implanted with subcutaneous K-Luc tumors (n=8). 7 days after, when tumors became palpable and after confirmation of the tumor presence with BLU imaging, mice were implanted with Alzet minipumps with ICG001 (50 mg/kg/day). Pumps were continuously providing a daily dose of ICG-001. […]
IHC was performed in COH pathology core. Tissues were scanned and quantification of CD4, CD8 and CD31 expression was done using ImageJ software.
Image analysis. Images were processed and analyzed in the ImageJ (Schneider et al. 2012, also see Schneider, C. A., Rasband, W. S., Image J, U. S. National Institutes of Health, Bethesda, Md., USA, https://imagej.nih.gov/ij/, 1997-2018). […] A watershed filter was then applied to this processed mask and the ‘Analyze Particles’ tool with a 4 pixel minimum size was employed to quantify the cells identified. […]

[5] = system: Survivin/BIRC5 (Wnt/CBP/β-catenin signaling); assay: Survivin-luciferase reporter assay; assay type: cell-based, human; conditions: PBT017 and PBT030 cell lines
Procedure: FIG. 15. Expression of target genes post-ICG-001 treatment (0-10 μM) by RT-PCR using (A-C) mouse Survivin in GL261-IL13, GL261, and K-luc cells. (D) Survivin in PBT147 human glioma cells. (E, F) Luciferase reporter assay indicating downregulation of Survivin/BIRC5 in PBT017 and PBT030 cell lines.
FIG. 16 is a table showing the expression of the target genes survivin/BIRC5 post-ICG-001 treatment ([…]) as detected by RT-PCR and Luciferase Reporter Assay.
ICG-001 differentially affects the expression of the Wnt target genes BIRC5/Survivin and EphB2 in vitro. […] The effects of ICG-001 on Wnt/CBP/β-catenin signaling were further confirmed using a Survivin-luciferase reporter assay (FIG. 15). ICG-001's selective effects on the expression of Survivin and EphB2 may serve as indicators of ICG-001 on target tissue activity in vivo (FIG. 16) and a readout for pharmacokinetics/pharmacodynamics (PK/PD) as used previously in clinical trials with the second-generation CBP/β-catenin specific antagonist PRI-724 (Anthony et al. 2013).

SMILES: O=C1[C@H](Cc2ccc(O)cc2)N2C(=O)CCN(C(=O)NCc3ccccc3)[C@H]2CN1Cc1cccc2ccccc12 [ICG-001]
- expression of interferon-y regulated chemokines CXCL9-11 in the TME [1]: significantly increased; also recorded: increased the expression
- CD8+ T cell infiltration into the tumor microenvironment [2]: increased CD8+ T cell infiltration
- cytotoxicity of HER2 CAR-T cells ([3]; CAR-T cells and tumor cells 1:5 ratio, ICG-001 1.25-5 μM): enhanced
- tumor cell killing at given effector: target cell ratios ([3]; HER2-CAR T cells + ICG-001, effector: target cell ratios of 1:5 and 1:10): Enhanced killing
- tumor cell killing, ICG-001 in combination with HER2-CAR T cells ([3]; PBT017 (and PBT106) lines, ICG-001 0-5 μM): synergistic cytotoxicity; also recorded: synergistic killing
- killing by CAR T cells of ICG-001-treated tumor cells ([3]; Tumor[PBT106.eGFP]: CAR T [Her2] cells in ratios (1:2; 1:2, 1:4)): improved killing by CAR T cells
- KIF20A expression (KIF20A): decreased expression of KIF20A
- CD3+, CD8+, and CD4+ cells infiltrating the tumor ([4]; by day 14): increase in mouse host immune cells
- CD31 expression in tumor ([4]; days 7, 14, 21): time-dependent increase
- Survivin/BIRC5 luciferase reporter activity [5]: downregulation
